Laboratory results from patent US20240368173A1, “TRICYCLIC GPR65 MODULATORS” (PATHIOS THERAPEUTICS LIMITED, priority 2021, published 2024).
pIC50: −log10 of the molar value. Where two headings read alike, the source gives them in different places.

Target: human recombinant GPR65 (Homo sapiens, UniProt Q8IYL9)
Assay: Human GPR65 cAMP HTRF antagonist assay
Type: cell-based
From the text: In one preferred embodiment, the compound prevents the increase in cytoplasmic cAMP levels expected following GPR65 activation at acidic pH. This prevention of cAMP accumulation in turn prevents downstream signalling through ICER, as described above. The “Human GPR65 cyclic adenosine monophosphate (cAMP) Homogeneous Time Resolved Fluorescence (HTRF) antagonist assay”, or simply “cAMP assay”, as described in the accompanying examples, can be used to measure the potency of GPR65 modulators, which is expressed as the concentration of compound required to reduce the increase in cAMP concentration upon GPR65 activation by 50% (i.e. an IC50).
Human GPR65 Cyclic Adenosine Monophosphate (cAMP) Homogeneous Time Resolved Fluorescence (HTRF) Antagonist Assay Procedure
IC50 data was obtained by the following procedure:
1321N1 human astrocytoma cells stably expressing human recombinant GPR65 (1321N1-hrGPR65 cells, EuroscreenFast) were cultured according to the vendor's instructions.
Compounds were tested for their ability to antagonise GPR65, through measuring the concentration of cytoplasmic cAMP following treatment of the cells at a pH of 7.2 to activate GPR65 signalling and addition of the compound to be tested. The extent to which the expected rise in cAMP concentration upon GPR65 activation was suppressed by the added compound is indicative of its potency. The assay was carried out according to EuroscreenFast assay Methodology as follows.
On the day of the assay, test compounds were added to 384-well, low volume, white microtiter plates by acoustic dispensing. KRH buffer (5 mM KCl, 1.25 mM MgSO4, 124 mM NaCl, 25 mM HEPES, 13.3 mM Glucose, 1.25 mM KH2PO4 and 1.45 mM CaCl2) was adjusted to pH 6.5, pH 7.6 and pH 8.4 by adding NaOH. 1321N1-hGPR65 cells were rapidly thawed and diluted in KRH, pH 7.6 prior to centrifugation at 300×g for 5 min and resuspension in assay buffer (KRH, pH 7.6, supplemented with 1 mM 3-isobutyl-1-methylxanthine (IBMX) and 200 μM ethylenediaminetetraacetic acid (EDTA)). Cells were added to assay plates at a density of 2,000 cells per well in a volume of 5 μl. Assay plates were briefly centrifuged at 100×g and then incubated at room temperature for 30 min. Cells were stimulated by the addition of 5 μL KRH, pH 6.5, to achieve an assay pH of 7.2, while control wells received 5 μl KRH, pH 8.4 to achieve an assay pH of 7.9. Assay plates were briefly centrifuged at 100×g and then incubated at room temperature for 30 min.
Accumulation of cAMP was detected by cAMP HTRF kit (Cisbio). d2-labeled cAMP and cryptate-labeled anti-cAMP antibody in Lysis and Detection Buffer (Cisbio) were added to assay plates, and the plates were incubated at room temperature for 1 h. HTRF measurements were performed using a Pherastar FSX instrument. Acceptor and donor emission signals were measured at 665 nm and 620 nm, respectively, and HTRF ratios were calculated as signal665 nm/signal620 nm×10^4. Data were normalised to high and low control values and fitted with 4-parameter logistic regression to determine hGPR65 IC50 values for the test compounds, which are shown in Table 1.

[1] = 1321N1-hrGPR65 cells, cAMP HTRF, assay pH 7.2, read-out: hGPR65 IC50 (Activity of selected compounds according to the invention)

Sequence of human recombinant GPR65 (Q8IYL9 whole entry): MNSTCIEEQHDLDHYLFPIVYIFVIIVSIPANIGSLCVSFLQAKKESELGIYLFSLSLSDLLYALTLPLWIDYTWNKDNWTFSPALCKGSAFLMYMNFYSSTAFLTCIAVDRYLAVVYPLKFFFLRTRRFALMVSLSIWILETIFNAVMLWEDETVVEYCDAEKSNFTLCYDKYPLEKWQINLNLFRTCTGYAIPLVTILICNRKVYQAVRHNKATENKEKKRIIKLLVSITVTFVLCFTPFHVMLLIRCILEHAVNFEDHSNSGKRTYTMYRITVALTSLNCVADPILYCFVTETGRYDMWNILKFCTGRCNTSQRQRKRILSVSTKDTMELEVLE

Question: O=C(Nc1cc(Br)c(Cl)cc1F)N1[C@H]2CC[C@@H]1c1c[nH]c(=O)nc1C2 [Compound 26, (5R,8S)-N-(5-Bromo-4-chloro-2-fluorophenyl)-2-oxo-3,5,6,7,8,9-hexahydro-2H-5,8-epiminocyclohepta[d]pyrimidine-10-carboxamide] was tested. Which pIC50 did it give?
Answer: Its pIC50 is greater than 6.30.

Question: How did the pIC50 turn out when COc1ccc(-c2cc(F)c(NC(=O)N3[C@H]4CC[C@@H]3c3n[nH]c(=O)cc3C4)cc2C(F)(F)F)cn1 [Compound 213, (6S,9R)-N-(2-Fluoro-4-(6-methoxypyridin-3-yl)-5-(trifluoromethyl)phenyl)-3-oxo-3,5,6,7,8,9-hexahydro-2H-6,9-epiminocyclohepta[c]pyridazine-10-carboxamide] was run?
Answer: Its pIC50 is greater than 6.30.

Question: O=C(Nc1cc(Cl)c(-c2ccc(OC(F)F)nc2)cc1F)N1[C@H]2CC[C@@H]1c1ccnc(F)c1C2 [Compound 324, (5R,8S)-N-(5-Chloro-4-(6-(difluoromethoxy)pyridin-3-yl)-2-fluorophenyl)-1-fluoro-6,7,8,9-tetrahydro-5H-5,8-epiminocyclohepta[c]pyridine-10-carboxamide] was tested. Which pIC50 did it give?
Answer: Its pIC50 is greater than 6.30.

Question: O=C(Nc1cc(Cl)c(-c2ccc(OCC3CC3)nc2)cc1F)N1[C@H]2CC[C@@H]1c1c[nH]c(=O)cc1C2 [Compound 334, (6S,9R)-N-(5-Chloro-4-(6-(cyclopropylmethoxy)pyridin-3-yl)-2-fluorophenyl)-3-oxo-3,5,6,7,8,9-hexahydro-2H-6,9-epiminocyclohepta[c]pyridine-10-carboxamide] was tested. Which pIC50 did it give?
Answer: The pIC50 was greater than 6.30.

Question: O=C(Nc1cc(Cl)c(-c2ccc(OCC(F)(F)F)nc2)cc1F)N1C2CCC1C(F)(F)c1c2ccnc1F (racemic) [Compound 290, (±)-N-(5-Chloro-2-fluoro-4-(6-(2,2,2-trifluoroethoxy)pyridin-3-yl)phenyl)-1,9,9-trifluoro-6,7,8,9-tetrahydro-5H-5,8-epiminocyclohepta[c]pyridine-10-carboxamide] was tested. Which pIC50 did it give?
Answer: Its pIC50 is greater than 6.30.

Question: With CN1C(=O)Cc2ccc(-c3cc(F)c(NC(=O)N4[C@H]5CC[C@@H]4c4n[nH]c(=O)cc4C5)cc3Cl)cc21 [Compound 163, (6S,9R)-N-(5-Chloro-2-fluoro-4-(1-methyl-2-oxoindolin-6-yl)phenyl)-3-oxo-3,5,6,7,8,9-hexahydro-2H-6,9-epiminocyclohepta[c]pyridazine-10-carboxamide] as the compound, how does the pIC50 read?
Answer: Its pIC50 is greater than 6.30.

Question: O=C1NCc2cc(-c3cc(F)c(NC(=O)N4[C@H]5CC[C@@H]4c4n[nH]c(=O)cc4C5)cc3Cl)ccc21 [Compound 142, (6S,9R)-N-(5-Chloro-2-fluoro-4-(1-oxoisoindolin-5-yl)phenyl)-3-oxo-3,5,6,7,8,9-hexahydro-2H-6,9-epiminocyclohepta[c]pyridazine-10-carboxamide] was tested. Which pIC50 [1] did it give?
Answer: Its pIC50 is less than 5.30.

Question: How did the pIC50 turn out when O=C(Nc1cc(Br)c(Cl)cc1F)N1C2CCC1c1c[nH]c(=O)nc1C2 (racemic) [Compound 15, (±)—N-(5-Bromo-4-chloro-2-fluorophenyl)-2-oxo-3,5,6,7,8,9-hexahydro-2H-5,8-epiminocyclohepta[d]pyrimidine-10-carboxamide] was run?
Answer: The pIC50 was greater than 6.30.

Question: O=C(Nc1cc(-c2ccc3nonc3c2)c(C(F)(F)F)cc1F)N1[C@H]2CC[C@@H]1c1c[nH]c(=O)cc1C2 [Compound 259, (6S,9R)-N-(5-(Benzo[c][1,2,5]oxadiazol-5-yl)-2-fluoro-4-(trifluoromethyl)phenyl)-3-oxo-3,5,6,7,8,9-hexahydro-2H-6,9-epiminocyclohepta[c]pyridine-10-carboxamide] was tested. Which pIC50 did it give?
Answer: The pIC50 was greater than 6.30.

Question: O=C(Nc1cc(Cl)c(-c2cc(F)cnc2F)cc1F)N1[C@H]2CC[C@@H]1c1c[nH]c(=O)cc1C2 [Compound 252, (6S,9R)-N-(5-Chloro-4-(2,5-difluoropyridin-3-yl)-2-fluorophenyl)-3-oxo-3,5,6,7,8,9-hexahydro-2H-6,9-epiminocyclohepta[c]pyridine-10-carboxamide] was tested. Which pIC50 did it give?
Answer: Its pIC50 is greater than 6.30.

Question: How did the pIC50 turn out when COCCCOc1cnc(F)c2c1[C@H]1CC[C@@H](C2)N1C(=O)Nc1cc(Cl)c(Cl)cc1F [Compound 105, (5R,8S)—N-(4,5-Dichloro-2-fluorophenyl)-1-fluoro-4-(3-methoxypropoxy)-6,7,8,9-tetrahydro-5H-5,8-epiminocyclohepta[c]pyridine-10-carboxamide] was run?
Answer: Its pIC50 is greater than 6.30.

Question: How did the pIC50 turn out when O=C(Nc1cc(Cl)c(C2CC2)cc1F)N1[C@H]2CC[C@@H]1c1n[nH]c(=O)cc1C2 [Compound 42, (6S,9R)-N-(5-Chloro-4-cyclopropyl-2-fluorophenyl)-3-oxo-3,5,6,7,8,9-hexahydro-2H-6,9-epiminocyclohepta[c]pyridazine-10-carboxamide] was run?
Answer: Its pIC50 is greater than 6.30.

Question: O=C(Nc1cc(Cl)c(-c2ccnc(F)c2)cc1F)N1[C@H]2CC[C@@H]1c1ccnc(F)c1C2 [Compound 268, (5R,8S)-N-(5-Chloro-2-fluoro-4-(2-fluoropyridin-4-yl)phenyl)-1-fluoro-6,7,8,9-tetrahydro-5H-5,8-epiminocyclohepta[c]pyridine-10-carboxamide] was tested. Which pIC50 did it give?
Answer: Its pIC50 is greater than 6.30.

Question: CC(C)Oc1ccc(NC(=O)N2[C@H]3CC[C@@H]2c2ccnc(F)c2C3)cc1Cl [Compound 70, (5R,8S)-N-(3-Chloro-4-isopropoxyphenyl)-1-fluoro-6,7,8,9-tetrahydro-5H-5,8-epiminocyclohepta[c]pyridine-10-carboxamide] was tested. Which pIC50 did it give?
Answer: The pIC50 was greater than 6.30.

Question: How did the pIC50 [1] turn out when O=C(Nc1cc(Cl)c(-c2cncnc2)cc1F)N1[C@H]2CC[C@@H]1c1n[nH]c(=O)cc1C2 [Compound 137, (6S,9R)-N-(5-Chloro-2-fluoro-4-(pyrimidin-5-yl)phenyl)-3-oxo-3,5,6,7,8,9-hexahydro-2H-6,9-epiminocyclohepta[c]pyridazine-10-carboxamide] was run?
Answer: The pIC50 was 5.30 to 6.30.

Question: O=C(Nc1cc(Cl)c(-c2ccc(N3CCC3)nc2)cc1F)N1[C@H]2CC[C@@H]1c1n[nH]c(=O)cc1C2 [Compound 341, (6S,9R)-N-(4-(6-(Azetidin-1-yl)pyridin-3-yl)-5-chloro-2-fluorophenyl)-3-oxo-3,5,6,7,8,9-hexahydro-2H-6,9-epiminocyclohepta[c]pyridazine-10-carboxamide] was tested. Which pIC50 did it give?
Answer: Its pIC50 is greater than 6.30.

Question: O=C(Nc1cc(Cl)c(-c2cncc(F)c2)cc1F)N1[C@H]2CC[C@@H]1c1n[nH]c(=O)cc1C2 [Compound 126, (6S,9R)-N-(5-Chloro-2-fluoro-4-(5-fluoropyridin-3-yl)phenyl)-3-oxo-3,5,6,7,8,9-hexahydro-2H-6,9-epiminocyclohepta[c]pyridazine-10-carboxamide] was tested. Which pIC50 did it give?
Answer: The pIC50 was greater than 6.30.

Question: How did the pIC50 turn out when O=C(Nc1cc(C(F)(F)F)c(-c2cnc3nonc3c2)cc1F)N1[C@H]2CC[C@@H]1c1n[nH]c(=O)cc1C2 [Compound 269, (6S,9R)-N-(4-([1,2,5]Oxadiazolo[3,4-b]pyridin-6-yl)-2-fluoro-5-(trifluoromethyl)phenyl)-3-oxo-3,5,6,7,8,9-hexahydro-2H-6,9-epiminocyclohepta[c]pyridazine-10-carboxamide] was run?
Answer: The pIC50 was greater than 6.30.

Question: With CN1C(=O)COc2ccc(-c3cc(F)c(NC(=O)N4[C@H]5CC[C@@H]4c4n[nH]c(=O)cc4C5)cc3Cl)cc21 [Compound 147, (6S,9R)-N-(5-Chloro-2-fluoro-4-(4-methyl-3-oxo-3,4-dihydro-2H-benzo[b][1,4]oxazin-6-yl)phenyl)-3-oxo-3,5,6,7,8,9-hexahydro-2H-6,9-epiminocyclohepta[c]pyridazine-10-carboxamide] as the compound, how does the pIC50 read?
Answer: The pIC50 was greater than 6.30.

Question: O=C(Nc1cc(Cl)c(-c2ccc3nonc3c2)cc1F)N1[C@H]2CC[C@@H]1c1ccnc(F)c1C2 [Compound 162, (5R,8S)-N-(4-(Benzo[c][1,2,5]oxadiazol-5-yl)-5-chloro-2-fluorophenyl)-1-fluoro-6,7,8,9-tetrahydro-5H-5,8-epiminocyclohepta[c]pyridine-10-carboxamide] was tested. Which pIC50 did it give?
Answer: The pIC50 was greater than 6.30.

Question: With O=C(Nc1cc(Cl)c(-c2cccc(CN3CCCC3)c2)cc1F)N1[C@H]2CC[C@@H]1c1n[nH]c(=O)cc1C2 [Compound 135, (6S,9R)-N-(2-Chloro-5-fluoro-3′-(pyrrolidin-1-ylmethyl)-[1,1′-biphenyl]-4-yl)-3-oxo-3,5,6,7,8,9-hexahydro-2H-6,9-epiminocyclohepta[c]pyridazine-10-carboxamide] as the compound, how does the pIC50 [1] read?
Answer: The pIC50 was 5.30 to 6.30.
